This test relates to DLBCL patients. Put plainly: Clinical evaluation of gene classifiers in the Compound A cohort (progression free survival, objective response). Further details: Median Surv BM+ / Median Surv BM−: unit not given here. The test is classed as in vivo, human. The conditions noted are these: for Predictive Effects Cox HR: BM+ vs BM-; for Predictive Effects Cox HR / Median Surv BM− / Median Surv BM+: progression free survival, Cmp A-ST (N = 57); for Median Surv BM−: biomarker-negative patients; for Median Surv BM+: biomarker-positive patients; for CR BM+ / CR BM−: number of complete responses; for OR BM+ / OR BM−: number of objective responses. From the text: A proof of principle study was designed to translate the biomarker content and model to a clinically viable platform. The study consisted of four major steps: 1) development of a simplified linear model of the primary signal, 2) placing the model in the scale of a clinically viable technology (such as but not limited to, Nanostring nCounter or qRT-PCR), 3) establishing a threshold to replicate the output of the research assay, and 4) evaluating the simplified model and threshold in the Compound A cohort. The final model was applied to the Lenz microarray cohort and the Compound A Non-transformed cohort assayed by Nanostring nCounter. The classification of each sample was then combined with clinical data, and associations with clinical variables such as objective response and progression free survival were calculated. Results are shown as Kaplan-Meier plots in FIGS. 4A-4D. […] FIGS. 4A and 4C show the original 26 gene research classifier, and FIGS. 4B and 4D show the linear model that resulted from this bridging study. […] Importantly, the shapes of the curves for each group are very similar between the original 26 gene classifier and the bridged linear model. Additional results including biomarker prevalence, summary statistics from Cox Proportional Hazards models, objective response, and model details are listed in Table 6.

Setting [1] is: CG26 classifier, BM+ (25 patients).
Where [2] appears, read: CG26 classifier, BM− (32 patients).
[3] abbreviates: M1 classifier, BM+ (22 patients).
Where [4] appears, read: M1 classifier, BM− (35 patients).

For `Cc1nc2cccc(N)c2c(=O)n1C1CCC(=O)NC1=O` (centres unmarked) [Compound A, 3-(5-amino-2-methyl-4-oxo-4H-quinazolin-3-yl)-piperidine-2,6-dione], where the note is “CG26 classifier”, the “Predictive Effects Cox HR” value is recorded as 0.31, the “Median Surv BM−” value is listed as 6.7 and the “Median Surv BM+” value was 35.9. Also, under “M1 classifier”, the “Predictive Effects Cox HR” value was 0.32, the “Median Surv BM−” value is given as 6.9 and the “Median Surv BM+” value was 37.9. Moreover, under setting [1], the “CR BM+” value is 4 and the “OR BM+” value was found to be 12. Also, under setting [2], the “CR BM−” value is 2 and the “OR BM−” value turned out to be 5. In addition, under setting [3], the “CR BM+” value turned out to be 4 and the “OR BM+” value is listed as 10. Under setting [4], the “CR BM−” value is 2 and the “OR BM−” value is 7.

The record behind these values is patent US20180238886A1, “METHODS FOR TREATING HEMATOLOGICAL CANCER AND THE USE OF BIOMARKERS AS A PREDICTOR FOR RESPONSIVENESS TO TREATMENT COMPOUNDS” (CELGENE CORPORATION, priority 2017, published 2018).
